{"source": "patent US20210315992A1", "about": "“ADJUVANT EFFECT OF THE TLR1/2 AGONIST DIPROVOCIM SYNERGIZES WITH CHECKPOINT-INHIBITING ANTIBODIES TO ELIMINATE DISEASE” (The Board of Regents of the University of Texas System, priority 2018, published 2021)", "key": {"[1]": {"test_system": "MAPK and canonical NF-κB signaling", "assay": "Western blotting of mouse peritoneal macrophage lysates", "assay_type": "cell-based", "settings": "mouse peritoneal macrophages, 500 nM", "protocol": "Mouse peritoneal macrophages or human THP-1 cells (1×10^6 per well) were stimulated in 12-well plates with a Diprovocim at 500 nM for mouse cells or 5 nM for human cells for the indicated times and lysed directly in sample buffer (Sigma). Cell lysates were separated by SDS-PAGE and transferred to nitrocellulose membranes. Membranes were probed with the following antibodies: phospho-IKKα (Ser176)/IKKβ (Ser177), IκBα, phospho-p38 (Thr180/Tyr182), phospho-JNK (Thr183/Tyr185), phospho-ERK1/2 (Thr202/Tyr204) (Cell Signaling Technology) and β-Actin (Sigma)."}, "[2]": {"test_system": "B16-OVA and B16F10 tumor cells", "assay": "Re-challenge of tumor-free survivors with B16-OVA and B16 cells", "assay_type": "in vivo, mouse", "settings": "survivors of Diprovocim+OVA plus anti-PD-L1, no further therapy"}, "human PBMC": {"test_system": "human PBMC", "assay": "TNF production by human PBMC (ELISA)", "assay_type": "cell-based", "settings": "24 hours", "protocol": "(§1) For murine BMDCs, bone morrow cells were cultured in Petri dishes in 10 ml DMEM cell culture medium containing 10 ng/ml of murine GM-CSF (R&D Systems). On day 3 of culture, this was replaced with fresh GM-CSF medium. Loosely adherent cells were transferred to a fresh Petri dish and cultured for an additional 4 d. Human PBMC were purchased from Stemcell Technologies. THP-1 (ATCC) cells were differentiated by treatment with 100 nM PMA (Sigma) in RPMI cell culture medium [RPMI containing 10% vol/vol FBS (Gemini Bio Products), 1% penicillin and streptomycin (Life Technologies)] for 24 hours. After that, cells were washed with PBS and cultured in fresh RPMI cell culture medium for 24 hours before use in studies.\n[…] Mouse TNF, IL-6, or IFN-β, or human TNF in the supernatants were measured by ELISA kits according to the manufacturer's instructions (eBioscience and PBL Assay Science). Pretreatment with 20 μg/ml anti-TLR1, anti-TLR2 or isotype control antibody (eBioscience) was for 1 hour. Unless otherwise indicated, mouse cells were from wild type C57BL/6J mice."}, "B16-OVA melanoma [3]": {"test_system": "B16-OVA melanoma", "assay": "B16-OVA melanoma, post-tumor treatment (immunization day 3 after tumor inoculation)", "assay_type": "in vivo, mouse", "settings": "post-tumor treatment", "experimental": "C57BL/6J mice (n=8 mice per treatment) were injected s.c. with 2×10^5 B16-OVA melanoma cells on day 0. For pre-tumor treatment, mice were immunized i.m. with OVA (100 μg) mixed with vehicle or Diprovocim (10 mg/kg) or alum (2 mg/kg) on the same day prior to tumor injection. Mice received a booster immunization seven days later in which anti-PD-L1 (200 μg) was administered on days 3, 6 and 9 after tumor inoculation by i.p. injection. For post-tumor treatment, initial immunization was on day 3 after tumor inoculation, with a booster seven days later. Anti-PD-L1 (200 μg) was administered on days 3, 6, 9, 12, and 15 after tumor inoculation by i.p. injection. […] P values for tumor volume analysis apply to the final time point as indicated in graphs and were calculated by Student's t test. P values for survival analysis were calculated by Kaplan-Meier analysis. All results are representative of two independent studies.\nFor post-treatment, 10 mg/kg Diprovocim-1 or 2 mg/kg Alum with OVA (100 μg) was injected i.m. into mice on day 3 after tumor inoculation. Mice received a booster shot seven days after the first immunization. On day 3, 6, 9, 12 and 15 after tumor inoculation, mice were also injected i.p. with 200 μg anti-mPD-L1 in 100 μl saline.\nTumors were measured with a digital caliper (Fisher) and the tumor sizes were calculated using the following formula: volume=0.5×length×width^2. […]"}, "B16-OVA melanoma [4]": {"test_system": "B16-OVA melanoma", "assay": "B16-OVA melanoma, pre-tumor treatment (immunization on day of tumor inoculation)", "assay_type": "in vivo, mouse", "protocol": "FIG. 4A through FIG. 4J illustrate inhibition of B16-OVA tumor growth by pre- or post-tumor treatment with Diprovocim-adjuvanted tumor vaccination and checkpoint blockade. FIG. 4A provides a schematic of pre- and post-tumor treatment protocols. C57BL/6J mice (n=8 mice per treatment) were injected s.c. with 2×10^5 B16-OVA melanoma cells on day 0. For pre-tumor treatment, mice were immunized i.m. with OVA (100 μg) mixed with vehicle or Diprovocim (10 mg/kg) or alum (2 mg/kg) on the same day prior to tumor injection. Mice received a booster immunization seven days later in which anti-PD-L1 (200 μg) was administered on days 3, 6 and 9 after tumor inoculation by i.p. injection. For post-tumor treatment, initial immunization was on day 3 after tumor inoculation, with a booster seven days later. Anti-PD-L1 (200 μg) was administered on days 3, 6, 9, 12, and 15 after tumor inoculation by i.p. injection. FIG. 4B through FIG. 4F illustrate pre-tumor treatment results. Tumor volume (FIG. 4B and FIG. 4D) and percent mouse survival (survivors/total mice) (FIG. 4C and FIG. 4E). […] FIG. 4G through FIG. 4J illustrate a comparison of pre-tumor (FIG. 4G and FIG. 4H) vs. post-tumor treatment (FIG. 4I and FIG. 4J). Tumor volume (FIG. 4G and FIG. 4I) and percent mouse survival (survivors/total mice) (FIG. 4H and FIG. 4J) are shown. P values for tumor volume analysis apply to the final time point as indicated in graphs and were calculated by Student's t test. P values for survival analysis were calculated by Kaplan-Meier analysis. All results are representative of two independent studies.\nC57BL/6J mice (n=8) were injected s.c. with 2×10^5 B16-OVA melanoma cells on day 0. Anti-PD-L1 (200 μg) or mouse IgG2a isotype control antibody was administered on days 3, 6 and 9 after tumor inoculation by i.p. injection. FIG. 8A is a graph of tumor volume versus time and FIG. 8B is a graph showing percent mouse survival (survivors/total mice) versus time. The control values in both plots are shown above those for the anti-PD-L1 values where the two values diverge. […] Results are representative of two independent studies.\nB16-OVA cells (B16F10 melanoma cells stably expressing chicken ovalbumin) were grown in DMEM containing 10% vol/vol FBS. A total of 2×10^5 B16-OVA cells in 100 μL PBS were injected s.c. into the right flank of 8-12 week old male C57BL/6J mice to establish tumors (n=8 mice per group). For pretreatment, 10 mg/kg Diprovocim-1 or 2 mg/kg alum with or without OVA (100 μg) was injected i.m. into mice on the same day as tumor inoculation (day 0). Mice received a booster shot seven days after the first immunization. On day 3, 6 and 9, some groups were injected i.p. with 200 μg checkpoint inhibitor (anti-mPD-L1, BioXcell) in 100 μl saline.\nTumors were measured with a digital caliper (Fisher) and the tumor sizes were calculated using the following formula: volume=0.5×length×width^2. Mice were sacrificed when the tumor length or width reached 2 cm."}, "[5]": {"test_system": "mouse peritoneal macrophages", "assay": "TNF production by mouse peritoneal macrophages (ELISA)", "assay_type": "cell-based", "settings": "Peritoneal macrophage, 4 hours, read-out: EC50, dose-dependent TNF production", "protocol": "Thioglycollate-elicited macrophages were recovered 4 days after i.p. injection of 2 ml BBL thioglycollate medium, brewer modified (4% wt/vol; BD Biosciences) by peritoneal lavage with 5 ml phosphate buffered saline (PBS). The peritoneal macrophages were cultured in DMEM cell culture medium [DMEM containing 10% vol/vol FBS (Gemini Bio Products), 1% vol/vol penicillin and streptomycin (Life Technologies)] at 37° C. and 95% air/5% CO2.\n(§2) Cells were seeded onto 96-well plates at 1×10^5 cells per well and stimulated with a Diprovocim (dissolved in DMSO, and final DMSO concentrations (0.2%) were kept constant in all experiments) for 4 h. Mouse TNF, IL-6, or IFN-β, or human TNF in the supernatants were measured by ELISA kits according to the manufacturer's instructions (eBioscience and PBL Assay Science). Pretreatment with 20 μg/ml anti-TLR1, anti-TLR2 or isotype control antibody (eBioscience) was for 1 hour. Unless otherwise indicated, mouse cells were from wild type C57BL/6J mice."}, "[6]": {"test_system": "OVA peptide-pulsed target cells", "assay": "In vivo CTL killing assay", "set-up": "species or system mouse", "settings": "Tlr1−/− or Tlr2−/− mice"}, "mouse BMDC": {"test_system": "mouse BMDC", "assay": "IL-6 production by mouse BMDC (ELISA)", "assay_type": "cell-based", "settings": "4 hours", "protocol": "as §1, §2"}}, "note": "“Also recorded” adds a separate entry of the source.", "data": [{"smiles": "O=C(N[C@H]1C[C@@H]1c1ccccc1)[C@@H]1CN(C(=O)c2ccc(C(=O)N3C[C@@H](C(=O)N[C@H]4C[C@@H]4c4ccccc4)[C@H](C(=O)N[C@H]4C[C@@H]4c4ccccc4)C3)cc2)C[C@H]1C(=O)N[C@H]1C[C@@H]1c1ccccc1", "note": "[Diprovocim-1, (3S,3'S,4S,4'S)-1,1′-Terephthaloylbis(N^3,N^4-bis((1S,2R)-2-phenylcyclo-propyl)pyrrolidine-3,4-dicarboxamide)]", "values": [{"measurement": "phosphorylation of signaling proteins and IκBα degradation", "setting": "[1]", "result": "induced phosphorylation of IκKα, IKKβ, p38, JNK, and ERK, as well as degradation of IκBα"}, {"measurement": "memory response on tumor re-challenge", "setting": "[2]", "result": "antigen-specific memory responses that protect the host from relapse of tumor growth"}, {"measurement": "activation of TNF production compared with Pam3CSK4", "setting": "human PBMC", "result": "more potent and efficacious; also recorded: more potent than Pam3CSK4"}, {"measurement": "EC50", "setting": "human PBMC; read-out: EC50, dose-dependent TNF production", "result": 0.875, "unit": "nM"}, {"measurement": "effect on tumor growth, survival rate, and survival time compared with alum", "setting": "B16-OVA melanoma [3]", "result": "superior to that of alum"}, {"measurement": "tumor growth or mouse survival", "setting": "B16-OVA melanoma [4]; Diprovocim alone (no OVA) combined with anti-PD-L1 treatment", "result": "no effect"}, {"measurement": "effect on tumor growth, survival rate, and survival time compared with alum", "setting": "B16-OVA melanoma [4]; pre-tumor treatment", "result": "superior to that of alum"}, {"measurement": "tumor growth rates and survival times compared with vehicle alone", "setting": "B16-OVA melanoma [4]; single agent, no anti-PD-L1, i.m. day 0 and booster day 7", "result": "similar"}, {"measurement": "EC50", "setting": "[5]", "result": 1.3, "unit": "nM"}, {"measurement": "adjuvant activity in CTL killing in TLR1- and/or TLR2-deficient mice", "setting": "[6]", "result": "abrogated"}, {"measurement": "IL-6 production", "setting": "mouse BMDC", "result": "induced IL-6 production"}]}]}
